The target of experiment [1] is T1, B1R of the rat (Rattus norvegicus, UniProt P97583).
T1 construct: expressed in transfected cells; host or cells: CHO K1 cells (Chinese hamster ovary), stably transfected
T1 sequence (P97583 1-337): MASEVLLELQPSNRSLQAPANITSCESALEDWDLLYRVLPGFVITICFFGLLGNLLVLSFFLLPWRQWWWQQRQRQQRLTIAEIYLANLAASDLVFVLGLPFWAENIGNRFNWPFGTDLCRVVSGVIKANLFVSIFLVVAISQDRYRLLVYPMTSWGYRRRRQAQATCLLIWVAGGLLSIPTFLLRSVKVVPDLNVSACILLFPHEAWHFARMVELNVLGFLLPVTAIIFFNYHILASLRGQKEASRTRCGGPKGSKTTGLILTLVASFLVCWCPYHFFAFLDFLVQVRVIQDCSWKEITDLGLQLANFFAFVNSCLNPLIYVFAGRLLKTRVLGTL
Description: FLIPR Ca2+ functional assay, B1R antagonism, rat B1R in CHO K1 cells. The experiment is classed as cell-based. The conditions noted are these: test substance 10 μM; rB1R CHO K1 cells; agonist Des-Arg9 bradykinin at EC80; % of maximum achievable inhibition. In a few lines: (§1)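 IC50 values come from varied compound concentrations applied 10-20 min before an EC80 agonist challenge, with Des-Arg9 bradykinin for rat and Lys-Des-Arg9 bradykinin for human receptor. Ca2+ influx in Fluo-4-loaded CHO K1 transfectants was measured by FLIPR peak fluorescence. Data are % inhibition vs maximum, n=2-3, N>=2.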

The target of experiment [2] is T2, human B1R (Homo sapiens, UniProt P46663).
T2 construct: expressed in transfected cells; host or cells: CHO K1 cells (Chinese hamster ovary), stably transfected
T2 sequence (P46663 1-353): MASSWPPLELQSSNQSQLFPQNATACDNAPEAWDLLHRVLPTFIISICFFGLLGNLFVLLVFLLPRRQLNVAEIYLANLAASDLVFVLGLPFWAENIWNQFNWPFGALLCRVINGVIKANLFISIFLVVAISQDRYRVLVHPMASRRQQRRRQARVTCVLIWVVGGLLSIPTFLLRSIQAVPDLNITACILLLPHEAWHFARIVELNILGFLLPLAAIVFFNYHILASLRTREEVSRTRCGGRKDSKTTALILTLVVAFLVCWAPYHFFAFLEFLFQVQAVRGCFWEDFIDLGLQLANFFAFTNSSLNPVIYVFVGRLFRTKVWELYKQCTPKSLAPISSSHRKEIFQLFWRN
Description: FLIPR Ca2+ functional assay, B1R antagonism, human B1R in CHO K1 cells. The class given is cell-based. The following applies: test substance 10 μM; hB1R CHO K1 cells; agonist Lys-Des-Arg9 bradykinin at EC80; % of maximum achievable inhibition. Summed up:
as §1

As to `Cc1ccc(S(=O)(=O)N2CCn3cccc3C2CC(=O)NC2CCCc3cc(CN4CCN(C)CC4)ccc32)cc1` (centres unmarked) [Example 78, N-[6-[(4-Methyl-piperazin-1-yl)-methyl]-1,2,3,4-tetrahydro-naphthalen-1-yl]-2-[2-(p-tolylsulfonyl)-1,2,3,4-tetrahydro-pyrrolo[1,2-a]pyrazin-1-yl]-acetamide], the figures for the inhibition at 10 µM in experiment [1] and in experiment [2] were 86.2% and 99.8%, respectively.

For `COc1ccc2cc(S(=O)(=O)N3CCn4cccc4C3CC(=O)NC3CCCc4cc(CN5CCCCC5)ccc43)ccc2c1` (centres unmarked) [Example 128, 2-[2-[(6-Methoxy-naphthalen-2-yl)sulfonyl]-1,2,3,4-tetrahydro-pyrrolo[1,2-a]pyrazin-1-yl]-N-[6-(piperidin-1-yl-methyl)-1,2,3,4-tetrahydro-naphthalen-1-yl]-acetamide], the figures for the inhibition at 10 µM in experiment [1] and in experiment [2] were 103% and 99.8%, respectively.

With `CNCc1ccc2c(c1)CCC(NC(=O)CC1c3cccn3CCN1S(=O)(=O)c1ccc3cc(OC)ccc3c1)C2` (centres unmarked) [Example 137, 2-[2-[(6-Methoxy-naphthalen-2-yl)sulfonyl]-1,2,3,4-tetrahydro-pyrrolo[1,2-a]pyrazin-1-yl]-N-[6-(methylamino-methyl)-1,2,3,4-tetrahydro-naphthalen-2-yl]-acetamide], the figures for the inhibition at 10 µM in experiment [1] and in experiment [2] were 104% and 99.7%, respectively.

As to `O=C(CC1c2cccn2CCN1S(=O)(=O)c1ccccc1)NC1CCc2cc(CN3CCCCC3)ccc2C1` (centres unmarked) [Example 27, 2-(2-(phenylsulfonyl)-1,2,3,4-tetrahydropyrrolo[1,2-a]pyrazin-1-yl)-N-(6-(piperidin-1-ylmethyl)-1,2,3,4-tetrahydronaphthalen-2-yl)acetamide], the inhibition at 10 µM is 102% in experiment [1] and 100% in experiment [2].

As for `Cc1ccc(S(=O)(=O)N2CCn3cccc3C2CC(=O)N[C@H](C)c2ccc(CNC(C)(C)C)cc2)cc1` (stereo partly drawn) [Example 46, N-[(1R)-1-[4-[(tert-Butylamino)-methyl]-phenyl]-ethyl]-2-[2-(p-tolylsulfonyl)-1,2,3,4-tetrahydro-pyrrolo[1,2-a]pyrazin-1-yl]-acetamide], the figures for the inhibition at 10 µM in experiment [1] and in experiment [2] were 29% and 55.8%, respectively.

Regarding `COc1cc(C)c(S(=O)(=O)N2CCn3cccc3C2CC(=O)NC2CCNCC2(C)C)c(C)c1` (centres unmarked) [Example 17, N-(3,3-Dimethylpiperidin-4-yl)-2-(2-(4-methoxy-2,6-dimethylphenylsulfonyl)-1,2,3,4-tetrahydropyrrolo[1,2-a]pyrazin-1-yl)acetamide], the figures for the inhibition at 10 µM in experiment [1] and in experiment [2] were 99.2% and 97.4%, respectively.

Turning to `O=C(CC1c2cccn2CCN1S(=O)(=O)c1cccc(C(F)(F)F)c1)NC1CCc2cc(CN3CCCCC3)ccc2C1` (centres unmarked) [Example 30, N-(6-(piperidin-1-ylmethyl)-1,2,3,4-tetrahydro-naphthalen-2-yl)-2-(2-(3-(trifluoromethyl)-phenylsulfonyl)-1,2,3,4-tetrahydropyrrolo-[1,2-a]pyrazin-1-yl)acetamide], the inhibition at 10 µM in experiment [1] was 102%; in experiment [2], 99.8%.

As to `COc1ccc2cc(S(=O)(=O)N3CCn4cccc4C3CC(=O)NC3CCc4cc(CNC(C)(C)C)ccc4C3)ccc2c1` (centres unmarked) [Example 31, N-(6-((tert-Butylamino)methyl)-1,2,3,4-tetrahydronaphthalen-2-yl)-2-(2-(6-methoxynaphthalen-2-ylsulfonyl)-1,2,3,4-tetrahydropyrrolo[1,2-a]-pyrazin-1-yl)acetamide], the inhibition at 10 µM in experiment [1] came to 104%; in experiment [2], 100%.

Consider `CCC(C)NCc1ccc2c(c1)CCCC2NC(=O)CC1c2cccn2CCN1S(=O)(=O)c1ccc(C)cc1` (centres unmarked) [Example 126, N-[6-[(1-Methyl-propylamino)-methyl]-1,2,3,4-tetrahydro-naphthalen-1-yl]-2-[2-(p-tolylsulfonyl)-1,2,3,4-tetrahydro-pyrrolo[1,2-a]pyrazin-1-yl]-acetamide], for which the inhibition at 10 µM in experiment [1] stood at 102%; in experiment [2] it was 99.9%.

Turning to `Cc1ccc(S(=O)(=O)N2CCn3cccc3C2CC(=O)N[C@@H]2CCCc3cc(CN4CCC(F)CC4)ccc32)cc1` (stereo partly drawn) [Example 44, N-[(1R)-6-[(4-Fluoro-piperidin-1-yl)-methyl]-1,2,3,4-tetrahydro-naphthalen-1-yl]-2-[2-(p-tolylsulfonyl)-1,2,3,4-tetrahydro-pyrrolo[1,2-a]pyrazin-1-yl]-acetamide], the figures for the inhibition at 10 µM in experiment [1] and in experiment [2] were 104% and 99.3%, respectively.

For the compound `Cc1ccc(S(=O)(=O)N2CCn3cccc3C2CC(=O)NC2CCc3cc(CN4CCCC4)ccc3C2)cc1` (centres unmarked) [Example 123, 2-[2-(p-Tolylsulfonyl)-1,2,3,4-tetrahydro-pyrrolo[1,2-a]pyrazin-1-yl]-N-[6-(pyrrolidin-1-yl-methyl)-1,2,3,4-tetrahydro-naphthalen-2-yl]-acetamide], the inhibition at 10 µM in experiment [1] was 101%; in experiment [2] it was 100%.

For `O=C(COCC1c2cccn2CCN1S(=O)(=O)c1ccccc1C(F)(F)F)N1CCC(Oc2ccncc2)CC1` (centres unmarked) [Example 5, 1-(4-(Pyridin-4-yloxy)piperidin-1-yl)-2-((2-(2-(trifluoromethyl)phenylsulfonyl)-1,2,3,4-tetrahydropyrrolo[1,2-a]pyrazin-1-yl)methoxy)ethanone], the inhibition at 10 µM in experiment [1] worked out at 102%; in experiment [2], 99.8%.

Take `CCC(C)NCc1ccc2c(c1)CCC(NC(=O)CC1c3cccn3CCN1S(=O)(=O)c1ccc(C)cc1)C2` (centres unmarked) [Example 62, N-[6-[(1-Methyl-propylamino)-methyl]-1,2,3,4-tetrahydro-naphthalen-2-yl]-2-[2-(p-tolylsulfonyl)-1,2,3,4-tetrahydro-pyrrolo[1,2-a]pyrazin-1-yl]-acetamide]: the figures for the inhibition at 10 µM in experiment [1] and in experiment [2] were 98.4% and 99.2%, respectively.

For `Cc1ccc(S(=O)(=O)N2CCn3cccc3C2CC(=O)NC2CCCc3cc(CN(C)C(C)(C)C)ccc32)cc1Cl` (centres unmarked) [Example 76, N-[6-[(tert-Butyl-methyl-amino)-methyl]-1,2,3,4-tetrahydro-naphthalen-1-yl]-2-[2-[(3-chloro-4-methyl-phenyl)sulfonyl]-1,2,3,4-tetrahydro-pyrrolo[1,2-a]pyrazin-1-yl]-acetamide], the inhibition at 10 µM in experiment [1] is 101%; in experiment [2], 99.8%.

In the case of `COc1cc(C)c(S(=O)(=O)N2CCn3cccc3C2CC(=O)N2CCC3(CC2)CCN(c2ccncc2)C3)c(C)c1` (centres unmarked) [Example 18, 2-(2-(4-Methoxy-2,6-dimethylphenylsulfonyl)-1,2,3,4-tetrahydro-pyrrolo[1,2-a]pyrazin-1-yl)-1-(2-(pyridin-4-yl)-2,8-diazaspiro[4.5]decan-8-yl)-ethanone], the values for the inhibition at 10 µM in experiment [1] and in experiment [2] were 94.8% and 99.9%, respectively.

With `COc1cc(C)c(S(=O)(=O)N2CCn3cccc3C2CC(=O)N2CCN(C3CCN(C)CC3)CC2)c(C)c1` (centres unmarked) [Example 1, 2-(2-(4-Methoxy-2,6-dimethylphenylsulfonyl)-1,2,3,4-tetrahydro-pyrrolo[1,2-a]pyrazin-1-yl)-1-(4-(1-methylpiperidin-4-yl)piperazin-1-yl)ethanone], the results for the inhibition at 10 µM in experiment [1] and in experiment [2] were 100% and 94.8%, respectively.

Consider `Cc1ccc(S(=O)(=O)N2CCn3cccc3C2CC(=O)NC2CCc3cc(CN4C5CCCC4CC5)ccc3C2)cc1Cl` (centres unmarked) [Example 71, N-[6-(8-Azabicyclo[3.2.1]octan-8-yl-methyl)-1,2,3,4-tetrahydro-naphthalen-2-yl]-2-[2-[(3-chloro-4-methyl-phenyl)sulfonyl]-1,2,3,4-tetrahydro-pyrrolo[1,2-a]pyrazin-1-yl]-acetamide], for which the values for the inhibition at 10 µM in experiment [1] and in experiment [2] were 102% and 99.8%, respectively.

For `Cc1ccc(S(=O)(=O)N2CCn3cccc3C2CC(=O)NC2CCc3cc(CN4CCOCC4)ccc3C2)cc1Cl` (centres unmarked) [Example 66, 2-[2-[(3-Chloro-4-methyl-phenyl)sulfonyl]-1,2,3,4-tetrahydro-pyrrolo[1,2-a]pyrazin-1-yl]-N-[6-(morpholin-4-yl-methyl)-1,2,3,4-tetrahydro-naphthalen-2-yl]-acetamide], the inhibition at 10 µM in experiment [1] is 100%; in experiment [2] it was 99.9%.

As for `COc1cc(C)c(S(=O)(=O)N2CCn3cccc3C2COCC(=O)N2CCC(Oc3ccncc3)C2)c(C)c1` (centres unmarked) [Example 38, 2-[[2-[(4-Methoxy-2,6-dimethyl-phenyl)sulfonyl]-1,2,3,4-tetrahydro-pyrrolo[1,2-a]pyrazin-1-yl]-methoxy]-1-(3-pyridin-4-yloxy-pyrrolidin-1-yl)-ethanone], the inhibition at 10 µM turned out to be 104% in experiment [1] and 98.1% in experiment [2].

These data come from US8158628B2, “Sulfonylated 1,2,3,4-tetrahydropyrrolo[1,2-a]pyrazine compounds and their use as pharmaceuticals” (Gruenenthal GmbH, priority 2009, dated 2012).
